Like-named read-outs stand apart in the source and are kept apart here.
Experiments:
Assay type in all cases: cell-based
[1] = target: hKv1.3 (Homo sapiens, UniProt P22001); assay: cell-based; conditions: Kv1.3 (IWQ) IC50 (nM, Avg)
[2] = system: IL-2 secretion from T cells in human whole blood; conditions: read-out: WB (IL-2) IC50 (nM, Avg)
[3] = system: IFN-g secretion from T cells in human whole blood
[4] = read-out: WB (IFNg) IC50 (nM, Avg)

Chain of hKv1.3 (P22001 whole entry): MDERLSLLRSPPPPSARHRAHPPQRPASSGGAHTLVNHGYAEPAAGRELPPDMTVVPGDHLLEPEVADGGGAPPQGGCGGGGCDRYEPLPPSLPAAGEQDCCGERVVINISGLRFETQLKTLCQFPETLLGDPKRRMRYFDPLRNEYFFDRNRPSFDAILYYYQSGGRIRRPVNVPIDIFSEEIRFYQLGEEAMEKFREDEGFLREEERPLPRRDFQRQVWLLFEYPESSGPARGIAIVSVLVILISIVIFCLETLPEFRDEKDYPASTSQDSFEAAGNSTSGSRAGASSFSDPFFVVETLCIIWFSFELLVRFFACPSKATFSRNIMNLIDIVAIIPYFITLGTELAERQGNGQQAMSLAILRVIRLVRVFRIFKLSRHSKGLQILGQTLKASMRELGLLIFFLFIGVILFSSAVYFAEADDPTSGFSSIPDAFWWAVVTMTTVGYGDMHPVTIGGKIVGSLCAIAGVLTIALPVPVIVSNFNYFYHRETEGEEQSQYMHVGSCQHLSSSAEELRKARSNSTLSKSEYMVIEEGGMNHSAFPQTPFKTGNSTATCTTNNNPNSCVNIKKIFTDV

CC[C@H](C)[C@@H]1NC(=O)[C@@H](NC(=O)[C@H](CO)NC(=O)[C@@H](N)CCCNC(=N)N)CSSC[C@@H](C(=O)O)NC(=O)[C@H]([C@@H](C)O)NC(=O)CNC(=O)[C@@H]2CSSC[C@@H]3NC(=O)[C@H](CCC(N)=O)NC(=O)[C@H](Cc4ccccc4)NC(=O)[C@H](C)NC(=O)[C@H]([C@@H](C)O)NC(=O)[C@H](CSSC[C@H](NC(=O)[C@H](Cc4cccc5ccccc45)NC(=O)[C@H](CO)NC(=O)[C@H](CC(C)C)NC(=O)[C@H](CCCNC(=N)N)NC(=O)[C@H](Cc4ccc(O)cc4)NC(=O)[C@H](CCCCN)NC(=O)[C@H](CCSC)NC(=O)[C@H](CO)NC(=O)[C@H](Cc4c[nH]cn4)NC(=O)[C@H](CCCCN)NC3=O)C(=O)N[C@@H](CCCNC(=N)N)C(=O)N[C@@H](CCCCN)C(=O)N[C@@H]([C@@H](C)O)C(=O)N2)NC(=O)[C@H](CCCNC(=N)N)NC(=O)[C@H](CO)NC(=O)[C@H](CCCCN)NC(=O)[C@@H]2CCCN2C(=O)[C@H]([C@@H](C)CC)NC(=O)[C@H]([C@@H](C)O)NC(=O)[C@H](CC(=O)O)NC1=O [[1-Nal27]ShK]
IC50 [1]: 0.144 nM
IC50 [2]: 1.07 nM
IC50 [3, 4]: 2.84 nM

CC[C@H](C)[C@@H]1NC(=O)[C@@H](NC(=O)[C@H](CO)NC(=O)[C@@H](N)CCCNC(=N)N)CSSC[C@@H](C(N)=O)NC(=O)[C@H]([C@@H](C)O)NC(=O)CNC(=O)[C@@H]2CSSC[C@@H]3NC(=O)[C@H](CCCCN)NC(=O)[C@H](Cc4ccccc4)NC(=O)[C@H](C)NC(=O)[C@H]([C@@H](C)O)NC(=O)[C@H](CSSC[C@H](NC(=O)[C@H](Cc4ccccc4)NC(=O)[C@H](CO)NC(=O)[C@H](CC(C)C)NC(=O)[C@H](CCCNC(=N)N)NC(=O)[C@H](Cc4ccc(O)cc4)NC(=O)[C@H](CCCCN)NC(=O)[C@H](CO)NC(=O)[C@H](CO)NC(=O)[C@H](Cc4c[nH]cn4)NC(=O)[C@H](CCCCN)NC3=O)C(=O)N[C@@H](CCCNC(=N)N)C(=O)N[C@@H](CCCCN)C(=O)N[C@@H]([C@@H](C)O)C(=O)N2)NC(=O)[C@H](CCCNC(=N)N)NC(=O)[C@H](CO)NC(=O)[C@H](CCCCN)NC(=O)[C@@H]2CCCN2C(=O)[C@H]([C@@H](C)CC)NC(=O)[C@H]([C@@H](C)O)NC(=O)[C@H](CC(=O)O)NC1=O [[Lys16, Ser21]ShK-amide]
IC50 [1]: 0.068 nM
IC50 [2]: 1.45 nM
IC50 [3, 4]: 1.71 nM

CC[C@H](C)[C@@H]1NC(=O)[C@@H](NC(=O)[C@H](CO)NC(=O)[C@@H](N)CCCNC(=N)N)CSSC[C@@H](C(N)=O)NC(=O)[C@H]([C@@H](C)O)NC(=O)CNC(=O)[C@@H]2CSSC[C@@H]3NC(=O)[C@H](CCCCN)NC(=O)[C@H](Cc4ccccc4)NC(=O)[C@H](C)NC(=O)[C@H]([C@@H](C)O)NC(=O)[C@H](CSSC[C@H](NC(=O)[C@H](Cc4ccccc4)NC(=O)[C@H](CO)NC(=O)[C@H](CC(C)C)NC(=O)[C@H](CCCNC(=N)N)NC(=O)[C@H](Cc4ccc(O)cc4)NC(=O)[C@H](CCCCN)NC(=O)[C@H](CCSC)NC(=O)[C@H](CO)NC(=O)[C@H](Cc4c[nH]cn4)NC(=O)[C@H](CCCCN)NC3=O)C(=O)N[C@@H](CCCCN)C(=O)N[C@@H](C)C(=O)N[C@@H]([C@@H](C)O)C(=O)N2)NC(=O)[C@H](CCCNC(=N)N)NC(=O)[C@H](CO)NC(=O)[C@H](CCCCN)NC(=O)[C@@H]2CCCN2C(=O)[C@H]([C@@H](C)CC)NC(=O)[C@H]([C@@H](C)O)NC(=O)[C@H](CC(=O)O)NC1=O [[Lys16, 29;A1a30]ShK-amide]
IC50 [1]: 0.197 nM
IC50 [2]: 0.186 nM
IC50 [3, 4]: 0.289 nM

CC[C@H](C)[C@@H]1NC(=O)[C@@H](NC(=O)[C@H](CCCNC(=N)N)NC(=O)[C@@H](N)CCCNC(=N)N)CSSC[C@@H](C(=O)O)NC(=O)[C@H]([C@@H](C)O)NC(=O)CNC(=O)[C@@H]2CSSC[C@@H]3NC(=O)[C@H](CCC(N)=O)NC(=O)[C@H](Cc4ccccc4)NC(=O)[C@H](C)NC(=O)[C@H]([C@@H](C)O)NC(=O)[C@H](CSSC[C@H](NC(=O)[C@H](Cc4ccccc4)NC(=O)[C@H](CO)NC(=O)[C@H](CC(C)C)NC(=O)[C@H](CCCNC(=N)N)NC(=O)[C@H](Cc4ccc(O)cc4)NC(=O)[C@H](CCCCN)NC(=O)[C@H](CCSC)NC(=O)[C@H](CO)NC(=O)[C@H](Cc4c[nH]cn4)NC(=O)[C@H](CCCCN)NC3=O)C(=O)N[C@@H](CCCNC(=N)N)C(=O)N[C@@H](CCCCN)C(=O)N[C@@H]([C@@H](C)O)C(=O)N2)NC(=O)[C@H](CCCNC(=N)N)NC(=O)[C@H](CO)NC(=O)[C@H](CCCCN)NC(=O)[C@@H]2CCCN2C(=O)[C@H]([C@@H](C)CC)NC(=O)[C@H]([C@@H](C)O)NC(=O)[C@H](CC(=O)O)NC1=O [[Arg2]ShK]
IC50 [1]: 0.074 nM
IC50 [2]: 0.097 nM
IC50 [3, 4]: 0.087 nM

CC[C@H](C)[C@@H]1NC(=O)[C@@H](NC(=O)[C@H](CO)NC(=O)[C@@H](N)CCCNC(=N)N)CSSC[C@@H](C(=O)O)NC(=O)[C@H]([C@@H](C)O)NC(=O)CNC(=O)[C@@H]2CSSC[C@@H]3NC(=O)[C@H](CCC(N)=O)NC(=O)[C@H](Cc4ccccc4)NC(=O)[C@H](C)NC(=O)[C@H]([C@@H](C)O)NC(=O)[C@H](CSSC[C@H](NC(=O)[C@H](Cc4ccccc4)NC(=O)[C@H](CO)NC(=O)[C@H](CC(C)C)NC(=O)[C@H](CCCNC(=N)N)NC(=O)[C@H](Cc4ccc(O)cc4)NC(=O)[C@H](CCCCN)NC(=O)[C@H](CCSC)NC(=O)[C@H](CO)NC(=O)[C@H](Cc4c[nH]cn4)NC(=O)[C@H](CCCCN)NC3=O)C(=O)N[C@@H](CCCNC(=N)N)C(=O)N[C@@H](CCCCN)C(=O)N[C@@H](CCC(=O)O)C(=O)N2)NC(=O)[C@H](CCCNC(=N)N)NC(=O)[C@H](CO)NC(=O)[C@H](CCCCN)NC(=O)[C@@H]2CCCN2C(=O)[C@H]([C@@H](C)CC)NC(=O)[C@H]([C@@H](C)O)NC(=O)[C@H](CC(=O)O)NC1=O [[Glu31]ShK]
IC50 [1]: 0.22 nM
IC50 [2]: 0.242 nM
IC50 ([3]; read-out: WB (IFNg) IC5- (nM, Avg)): 0.309 nM

CC[C@H](C)[C@@H]1NC(=O)[C@@H](NC(=O)[C@H](CO)NC(=O)[C@@H](N)CCCNC(=N)N)CSSC[C@@H](C(N)=O)NC(=O)[C@H]([C@@H](C)O)NC(=O)CNC(=O)[C@@H]2CSSC[C@@H]3NC(=O)[C@H](CCCCN)NC(=O)[C@H](Cc4ccccc4)NC(=O)[C@H](C)NC(=O)[C@H]([C@@H](C)O)NC(=O)[C@H](CSSC[C@H](NC(=O)[C@H](Cc4ccccc4)NC(=O)[C@H](CO)NC(=O)[C@H](CC(C)C)NC(=O)[C@H](CCCNC(=N)N)NC(=O)[C@H](Cc4ccc(O)cc4)NC(=O)[C@H](CCCCN)NC(=O)[C@H](CC4CCCCC4)NC(=O)[C@H](CO)NC(=O)[C@H](Cc4c[nH]cn4)NC(=O)[C@H](CCCCN)NC3=O)C(=O)N[C@@H](CCCNC(=N)N)C(=O)N[C@@H](CCCCN)C(=O)N[C@@H]([C@@H](C)O)C(=O)N2)NC(=O)[C@H](CCCNC(=N)N)NC(=O)[C@H](CO)NC(=O)[C@H](CCCCN)NC(=O)[C@@H]2CCCN2C(=O)[C@H]([C@@H](C)CC)NC(=O)[C@H]([C@@H](C)O)NC(=O)[C@H](CC(=O)O)NC1=O [[Lys16, Cha21]ShK-amide]
IC50 [1]: 0.499 nM
IC50 [2]: 1.74 nM
IC50 [3, 4]: 1.32 nM

CC[C@H](C)[C@@H]1NC(=O)[C@@H](NC(=O)[C@H](CO)NC(=O)[C@@H](N)CCCNC(=N)N)CSSC[C@@H](C(N)=O)NC(=O)[C@H]([C@@H](C)O)NC(=O)CNC(=O)[C@@H]2CSSC[C@@H]3NC(=O)[C@H](CCCCN)NC(=O)[C@H](Cc4ccccc4)NC(=O)[C@H](C)NC(=O)[C@H]([C@@H](C)O)NC(=O)[C@H](CSSC[C@H](NC(=O)[C@H](Cc4ccccc4)NC(=O)[C@H](CO)NC(=O)[C@H](CC(C)C)NC(=O)[C@H](CCCNC(=N)N)NC(=O)[C@H](Cc4ccc(O)cc4)NC(=O)[C@H](CCCCN)NC(=O)[C@H](Cc4c[nH]cn4)NC(=O)[C@H](CO)NC(=O)[C@H](Cc4c[nH]cn4)NC(=O)[C@H](CCCCN)NC3=O)C(=O)N[C@@H](CCCNC(=N)N)C(=O)N[C@@H](CCCCN)C(=O)N[C@@H]([C@@H](C)O)C(=O)N2)NC(=O)[C@H](CCCNC(=N)N)NC(=O)[C@H](CO)NC(=O)[C@H](CCCCN)NC(=O)[C@@H]2CCCN2C(=O)[C@H]([C@@H](C)CC)NC(=O)[C@H]([C@@H](C)O)NC(=O)[C@H](CC(=O)O)NC1=O [[Lys16, His21]ShK-amide]
IC50 [1]: 0.219 nM
IC50 [2]: 5.5 nM
IC50 [3, 4]: 9.25 nM

CC[C@H](C)[C@@H]1NC(=O)[C@@H](NC(=O)[C@H](CO)NC(=O)[C@@H](N)CCCNC(=N)N)CSSC[C@@H](C(=O)O)NC(=O)[C@H]([C@@H](C)O)NC(=O)CNC(=O)[C@@H]2CSSC[C@@H]3NC(=O)[C@H](CCC(N)=O)NC(=O)[C@H](Cc4ccccc4)NC(=O)[C@H](C)NC(=O)[C@H]([C@@H](C)O)NC(=O)[C@H](CSSC[C@H](NC(=O)[C@H](Cc4ccccc4)NC(=O)[C@H](CO)NC(=O)[C@H](CC(C)C)NC(=O)[C@H](CCCNC(=N)N)NC(=O)[C@H](Cc4ccc(O)cc4)NC(=O)[C@H](CCCCN)NC(=O)[C@H](CCSC)NC(=O)[C@H](CO)NC(=O)[C@H](Cc4c[nH]cn4)NC(=O)[C@H](CCCCN)NC3=O)C(=O)N[C@@H](CCCNC(=N)N)C(=O)N[C@@H](CCCNC(=N)N)C(=O)N[C@@H]([C@@H](C)O)C(=O)N2)NC(=O)[C@H](CCCNC(=N)N)NC(=O)[C@H](CO)NC(=O)[C@H](CCCCN)NC(=O)[C@@H]2CCCN2C(=O)[C@H]([C@@H](C)CC)NC(=O)[C@H]([C@@H](C)O)NC(=O)[C@H](CC(=O)O)NC1=O [[Arg30]ShK]
IC50 [1]: 0.04 nM
IC50 [2]: 0.014 nM
IC50 [3, 4]: 0.027 nM

CCC[C@@H]1NC(=O)[C@H](CO)NC(=O)[C@H](Cc2c[nH]cn2)NC(=O)[C@H](CCCCN)NC(=O)[C@@H]2CSSC[C@@H]3NC(=O)[C@H]([C@@H](C)O)NC(=O)[C@H](CCCCN)NC(=O)[C@H](CCCNC(=N)N)NC(=O)[C@H](CSSC[C@H](NC(=O)[C@H](CCCNC(=N)N)NC(=O)[C@H](CO)NC(=O)[C@H](CCCCN)NC(=O)[C@@H]4CCCN4C(=O)[C@H]([C@@H](C)CC)NC(=O)[C@H]([C@@H](C)O)NC(=O)[C@H](CC(=O)O)NC(=O)[C@H](CCC(=O)O)NC(=O)[C@@H](NC(=O)[C@H](CO)NC(=O)[C@@H](N)CCCNC(=N)N)CSSC[C@@H](C(N)=O)NC(=O)[C@H]([C@@H](C)O)NC(=O)CNC3=O)C(=O)N[C@@H]([C@@H](C)O)C(=O)N[C@@H](C)C(=O)N[C@@H](Cc3ccccc3)C(=O)N[C@@H](CCCCN)C(=O)N2)NC(=O)[C@H](Cc2ccccc2)NC(=O)[C@H](CO)NC(=O)[C@H](CC(C)C)NC(=O)[C@H](CCCNC(=N)N)NC(=O)[C@H](Cc2ccc(O)cc2)NC(=O)[C@H](CCCCN)NC1=O [[Glu4, Lys16,Nva21]ShK-amide]
IC50 [1]: 0.086 nM
IC50 [2]: 0.405 nM
IC50 [3, 4]: 0.427 nM

Source: patent US20120121591A1 (priority 2009, published 2012)
